{
  "source": "patent US11485891B2",
  "about": "“Products and methods for the treatment of mixtures of water and hydrophobic liquids” (B.C. RESEARCH INC., priority 2018, dated 2022)",
  "key": {"[1]": {"test": "Herding (slick retraction) of oil already spread on water", "details": "aqueous solution of herder applied to spread oil; images at 1, 5, 10 and 20 minutes", "source_text": "When an oil (e.g., dilbit) is applied to water in a pan, the oil spreads to cover the surface of the water. Application of FA-AA as a salt (e.g., Li, Na or K salts) dissolved in water results in contraction of the oil layer. The pooled oil has reduced surface area and greater slick thickness. This is illustrated in FIG. 9A-E where a solution of the salt of a FA-AA is applied to an aliquot of oil which has been allowed to spread in a pan (FIG. 9A). Application of the aqueous herder solution results in contraction of the slick over time. Images taken at 1, 5, 10 and 20 minutes are shown in FIGS. 9B, 9C, 9D and 9E respectively.\nAlternatively, an oil was applied to water in a pan and allowed to spread. A herder (e.g. L-phenylalanine, N-(1-oxotetradecyl)-, sodium salt) was applied to the water to retract the slick (i.e. decrease surface area while increasing the thickness/depth of the oil layer). Overhead photography was used to capture the herding process. The images were processed to determine the area of the slick and allow for calculation of the slick thickness (FIG. 9)."}, "[2]": {"procedure": "The herder L-phenylalanine, N-(1-oxotetradecyl)-, sodium salt and the gellant oleic-β-alaninamide were assessed for biodegradability in using OECD 301F guideline, manometric respirometer test."}, "[3]": {"test": "Reduction of oil adhesion on glass beads conditioned with aqueous herder solution", "details": "beads conditioned 1 hour, in oil 1 hour", "procedure": "Glass bead were used as a model substrate. The beads were weighed and transferred into a pre-weighed 60 mL plastic syringe. The beads were immersed in an aqueous solution of herder, C14-L-Phe-COONa, for 1 hour. An oil layer of conventional crude oil was added to the surface of the herder solution above the glass beads. The oil was lowered hydrostatically to immerse the beads in oil for 1 hour after which the oil was raised hydrostatically above the level of the beads. The water above the oil and beads were both removed. The mass of the oil retained on the glass beads was calculated as the difference between the mass of the oil-coated beads and the initial mass of the beads."}, "[4]": {"test": "Herder activity: slick thickness of oil added to water pre-dosed with herder", "procedure": "The herder formulation was pre-dosed into 1 L of water in a flat glass pan under which was a 1×1 cm grid. A known volume of oil was applied to the pre-dosed water. A digital photo of the oil slick was recorded. The image was processed using ImageJ in order to calculate the area of the slick. Since volume and area are known, it is possible to calculate the thickness of the slick as a function of herder dosing. Compounds that maximize the thickness of the slick are considered better oil-herders.\nStearoyl alanine was dissolved in isopropyl alcohol. An aliquot of this solution was added to 1 L of water in a pan. The final dosage of stearoyl alanine was 0.77 mg in 1 L of water. Dilbit (2.27 g) was added. An overhead digital photo was taken of the oil after 10 minutes. The photo was analyzed to determine the area of the oil which could be used to calculate the thickness of the oil layer. The oil slick was determined to be 2.9 mm thick.\nSilsurf, (trademark) a commercial herder added to 1 L of water in a glass pan for a final dosing of 1 mg. Dilbit (1.61 g) was added to the water. An overhead digital photo was taken of the oil after 10 minutes. The photo was analyzed to determine the area of the oil which could be used to calculate the thickness of the oil layer. The oil slick was determined to be 2.0 mm thick."}, "[5]": {"test": "Gelling ability, solution phase (co-solvent) delivery to dilbit-water mixture", "procedure": "PSOGs were screened against dilbit, diesel and sunflower. The dilbit used in the Examples herein was prepared by dissolving bitumen in naphtha in a 65:35 ratio of bitumen to naphtha. A typical screening method utilized a 1:4 ratio of hydrophobic liquid to water (i.e., 1 mL oil product to 4 mL water) in a 20 mL vial. The gellant (22.5 mg) was dissolved in a carrier solvent, which was typically methanol, ethanol or isopropanol. Heat was applied to dissolve the solid if necessary. The gellant solution was transferred to the oil-water mixture and the vial was capped. Agitation was applied and the mixture allowed to settle. Gel formation typically presented as the formation of an oil pellet or a thickening of the oil phase.\nFour portions of the prior art compound dodecanoyl-L-alanine of differing masses were weighed out and each dissolved in 1 mL of isopropyl alcohol. These four solutions were added to four separate 20 mL vials of 1:4 mL dilbit and water. […] Gel formation was evaluated qualitatively.\nThis procedure was repeated with dodecanoyl-β-alaninamide. Four portions of dodecanoyl-β-alaninamide of differing masses were weighed out and each dissolved in 1 mL of isopropyl alcohol. These four solutions were added to four separate 20 mL vials containing 1 mL dilbit and 4 mL water. […] Gel formation was evaluated qualitatively."}, "[6]": {"details": "Bhattacharya et al., Chemical Communications p. 185, 2001; cited from earlier work"}, "[7]": {"test": "Oil thickening, aqueous suspension delivery to dilbit-water mixture", "procedure": "Gellants which presented as fine powdery solids were suspended in water (4-5 mL). The suspension was sonicated to reduce the particle size if necessary. The suspension was added to a mixture of 1 mL oil to 4 mL water in a 20 mL vial. The vial was capped and the mixture agitated. Thickening of the oil, likely due to the formation of an emulsion, could be observed within 15 minutes.\nFour portions of prior art compound dodecanoyl-L-alanine of differing masses were weighed out and each suspended in 1 mL of water. These four suspensions were added to four separate 20 mL vials of 1:4 mL dilbit and water. […] Oil thickening was evaluated qualitatively.\nThis experiment was repeated with dodecanoyl-β-alaninamide. Four portions of dodecanoyl-β-alaninamide of differing masses were weighed out and each suspended in 7 mL of water. These four suspensions were added to four separate 20 mL vials of 1:4 mL dilbit and water. […] Oil thickening was evaluated qualitatively."}, "[8]": {"test": "Gelling activity using mixed organic solvent-water active suspension", "details": "25 mg in 5 mL 2:3 1,4-butanediol and water, heated and cooled; added to 1:4 oil and seawater, gentle agitation", "procedure": "The gellant oleic-p-alaninamide (25 mg) was suspended in 5 mL of a mixed solvent system composed of 2:3 1,4-butanediol and water. The mixture was heated to dissolve the solids. Upon cooling, the gellant precipitates as a cotton-like mass."}, "[9]": {"test": "Gelling activity without organic solvent (active suspension in water)", "details": "25 mg in 5 mL water, heated and cooled; no organic solvent", "procedure": "The gellant oleic-β-alaninamide (25 mg) was suspended 5 mL of water which was dyed pink for visualization purposes. The mixture was heated to dissolve the gellant. Upon cooling, the gellant precipitated as a cotton-like mass which retains the water. […] Upon the addition of diesel, which has been dyed blue, the hydrophobic phase entered the gellant mass upon contact and displaced the dyed water (FIGS. 8B and 8C) to produce the gelled diesel."}},
  "data": [
    {"molecule": "CCCCCCCCCCCCCC(=O)N[C@@H](Cc1ccccc1)C(=O)[O-].[Na+]", "note": "[L-phenylalanine, N-(1-oxotetradecyl)-, sodium salt]", "values": [
      {"measurement": "Herding of dilbit (FIG. 9)", "setting": "[1]", "result": "slick retraction"},
      {"measurement": "Biodegradability classification", "setting": "[2]", "result": "readily biodegradable"},
      {"measurement": "Average mass of conventional crude retained", "setting": "[3]; herder concentration 0.086 g/L", "result": 1.9, "unit": "g"},
      {"measurement": "Average mass of conventional crude retained", "setting": "[3]; herder concentration 0.57 g/L", "result": 1.3, "unit": "g"},
      {"measurement": "Average mass of conventional crude retained", "setting": "[3]; herder concentration 2.9 g/L", "result": 1.6, "unit": "g"},
      {"measurement": "Average mass of conventional crude retained", "setting": "[3]; herder concentration 10 g/L", "result": 1.8, "unit": "g"}
    ]},
    {"molecule": "CCCCCCCCCCCCCCCCCC(=O)N[C@@H](C)C(=O)O", "note": "[Stearoyl alanine]", "values": [
      {"measurement": "Oil slick thickness", "setting": "[4]; 0.77 mg in 1 L of water (from isopropyl alcohol solution), dilbit 2.27 g, photo after 10 minutes", "result": 2.9, "unit": "mm"}
    ]},
    {"molecule": "CCCCCCCCCCCC(=O)N[C@@H](C)C(=O)O", "note": "[dodecanoyl-L-alanine, reference compound]", "values": [
      {"measurement": "Dosing ratio at which a gel formed (qualitative evaluation)", "setting": "[5]; gellant in 1 mL isopropyl alcohol, 1 mL dilbit and 4 mL water, tested at 2.5, 1.25, 0.83 and 0.63% w/v relative to dilbit", "result": 2.5, "unit": "% w/v"},
      {"measurement": "Gelling ability", "setting": "[6]", "result": "gel various hydrophobic organic liquids including petrol"},
      {"measurement": "Dosing level at which the oil thickened (qualitative evaluation)", "setting": "[7]; solid suspended in water, 1:4 mL dilbit and water, tested at 2.5, 1.25, 0.83 and 0.63% w/v relative to dilbit", "result": "did not thicken the oil at any of the dosing levels tested"}
    ]},
    {"molecule": "CCCCCCCC/C=C\\CCCCCCCC(=O)NCCC(N)=O", "note": "[oleic-β-alaninamide]", "values": [
      {"measurement": "Time to gelling of the oil phase", "setting": "[8]", "result": "less than 1 minute"},
      {"measurement": "Gelling of dyed diesel (FIG. 8)", "setting": "[9]", "result": "gelled diesel"},
      {"measurement": "Biodegradability classification", "setting": "[2]", "result": "inherently biodegradable"}
    ]},
    {"molecule": "CCCCCCCCCCCCCC(=O)N[C@@H](C)C(=O)[O-].[Na+]", "note": "[sodium tetradecanoylalaninate]", "values": [
      {"measurement": "Behaviour of oil added to a pan of water pre-dosed with herder (FIG. 2)", "setting": "[4]; FA-AA salt pre-dosed into water", "result": "contraction of the oil slick"}
    ]},
    {"molecule": "oleic alaninamide", "values": [
      {"measurement": "State of dilbit after PSOG delivered as solution in a water-miscible solvent (FIG. 3)", "setting": "[5]; dilbit and water", "result": "gel pellet"},
      {"measurement": "State of dilbit after PSOG suspended in water (FIG. 3)", "setting": "[7]; dilbit and water", "result": "thickened state"}
    ]}
  ]
}
